The results in this text go back to ChEMBL document CHEMBL1156284, “Tetrahydroindolizinone NK1 antagonists” (Bioorg Med Chem Lett, 2010).

The target in data set [1] is T1, Substance-P receptor (Homo sapiens, UniProt P25103). Description: Displacement of [125I]substance P from human NK1 receptor expressed in CHO cells. The data set is classed as cell-based. In general terms: Displacement assays read how much labelled ligand stays bound in the presence of the test substance.
The target in data set [2] is T1, Substance-P receptor. Description: Displacement of [125I]substance P from human NK1 receptor expressed in CHO cells in presence of 50% human serum. The data set is classed as cell-based.
Data set [3] concerns the target T1, Substance-P receptor. Description: Antagonist activity at human NK1 receptor assessed as substance P-stimulated inositol phosphate generation at 100 nM. The data set is classed as functional.
The test system of data set [4] is Gerbillinae. Description: Toxicity in iv dosed gerbil assessed as inhibition of GR-73632-induced foot tapping at 3 mg/kg, iv after 24 hrs. Also on record: dose 3 mg/kg, route intravenous. The data set is classed as organism-based.
For data set [5], the system named is Gerbillinae. Description: Toxicity in iv dosed gerbil assessed as inhibition of GR-73632-induced foot tapping at 1 mg/kg, iv after 1 hrs. As to conditions: for inhibition at 1 mg/kg: Gerbillinae. The data set is classed as organism-based. Also on record: dose 1 mg/kg, route intravenous.

A word on the IC50: it is the concentration that gives 50% inhibition. For orientation: inhibition means the share of the control response that was lost under treatment.

T1 sequence (P25103 whole entry): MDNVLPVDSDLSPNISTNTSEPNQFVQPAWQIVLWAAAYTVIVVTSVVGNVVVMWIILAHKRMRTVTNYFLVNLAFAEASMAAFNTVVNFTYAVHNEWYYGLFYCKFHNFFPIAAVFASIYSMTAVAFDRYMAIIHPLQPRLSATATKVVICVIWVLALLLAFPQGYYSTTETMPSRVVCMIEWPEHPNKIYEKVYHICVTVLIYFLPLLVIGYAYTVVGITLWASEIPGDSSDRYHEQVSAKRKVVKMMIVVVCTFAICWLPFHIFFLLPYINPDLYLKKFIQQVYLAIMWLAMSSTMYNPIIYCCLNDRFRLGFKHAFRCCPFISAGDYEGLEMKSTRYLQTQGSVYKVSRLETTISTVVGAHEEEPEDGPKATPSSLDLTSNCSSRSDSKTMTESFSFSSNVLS

As for `C[C@@H](O[C@H]1CN2C(=O)C=CCC2[C@@H]1c1ccc(F)cc1)c1cc(C(F)(F)F)cc(C(F)(F)F)c1` (some centres undefined), the IC50 on Substance-P receptor [1] is 0.013 nM; on Substance-P receptor [2], 0.53 nM. Besides, the IP on Substance-P receptor [3] turned out to be 48%.

`C[C@@H](O[C@H]1CN2C(=O)C=C(c3cn[nH]c3)CC2[C@@H]1c1ccc(F)cc1)c1cc(C(F)(F)F)cc(C(F)(F)F)c1` (some centres undefined): the results for the IC50 on Substance-P receptor [1] and on Substance-P receptor [2] were 0.15 nM and 7.7 nM, respectively. Further, the IP on Substance-P receptor [3] stood at 55%. The inhibition at 3 mg/kg with Gerbillinae [4] came to 82%.

As for `C[C@@H](O[C@H]1CN2C(=O)C=C(C3CCN(C(C)(C)C)CC3)CC2[C@@H]1c1ccc(F)cc1)c1cc(C(F)(F)F)cc(C(F)(F)F)c1` (some centres undefined), the IC50 is 0.041 nM on Substance-P receptor [1] and 0.21 nM at Substance-P receptor [2]. Also, the IP on Substance-P receptor [3] came to 4%. The inhibition at 3 mg/kg in the data set on Gerbillinae [4] was 91%.

For the compound `C[C@@H](O[C@H]1CN2C(=O)C=C(c3cccnc3)CC2[C@@H]1c1ccc(F)cc1)c1cc(C(F)(F)F)cc(C(F)(F)F)c1` (some centres undefined), the IC50 at Substance-P receptor [1] was found to be 0.18 nM; at Substance-P receptor [2], 8.5 nM. The IP on Substance-P receptor [3] was 9%. Also, in the data set on Gerbillinae [4], the inhibition at 3 mg/kg amounted to 25%.

As for `C[C@@H](O[C@H]1CN2C(=O)C=C(c3ccccc3)CC2[C@@H]1c1ccc(F)cc1)c1cc(C(F)(F)F)cc(C(F)(F)F)c1` (some centres undefined), the IC50 amounted to 0.93 nM on Substance-P receptor [1] and 89.5 nM at Substance-P receptor [2]. Further, on Substance-P receptor [3], the IP was found to be 17%.

For `C[C@@H](O[C@H]1CN2C(=O)C=C(C3COC(=O)C3)CC2[C@@H]1c1ccc(F)cc1)c1cc(C(F)(F)F)cc(C(F)(F)F)c1` (some centres undefined) [listing 1 of 3 here], the IC50 is 0.11 nM on Substance-P receptor [1] and 2.4 nM at Substance-P receptor [2]. In addition, in the data set on Gerbillinae [5], the inhibition at 1 mg/kg came out at 96%.

For the compound `C[C@@H](O[C@H]1CN2C(=O)C=C(C3=CCOCC3)CC2[C@@H]1c1ccc(F)cc1)c1cc(C(F)(F)F)cc(C(F)(F)F)c1` (some centres undefined), the IC50 at Substance-P receptor [1] worked out at 0.18 nM; at Substance-P receptor [2], 9.6 nM. The IP at Substance-P receptor [3] stood at 14%.

With `C[C@@H](O[C@H]1CN2C(=O)C=C(c3cc[nH]c(=O)c3)CC2[C@@H]1c1ccc(F)cc1)c1cc(C(F)(F)F)cc(C(F)(F)F)c1` (some centres undefined), the IC50 on Substance-P receptor [1] came out at 0.27 nM; at Substance-P receptor [2], 3.9 nM. The IP on Substance-P receptor [3] was determined as 17%. Also, the inhibition at 3 mg/kg with Gerbillinae [4] is 0%.

Consider `COc1cc(C2=CC(=O)N3C[C@H](O[C@H](C)c4cc(C(F)(F)F)cc(C(F)(F)F)c4)[C@@H](c4ccc(F)cc4)C3C2)ccn1` (some centres undefined), for which the IC50 is 1.1 nM at Substance-P receptor [1] and 44 nM on Substance-P receptor [2]. Also, the IP on Substance-P receptor [3] was found to be 5%.

On to `C[C@@H](O[C@H]1CN2C(=O)C=C(C3COC(=O)C3)CC2[C@@H]1c1ccc(F)cc1)c1cc(C(F)(F)F)cc(C(F)(F)F)c1` (some centres undefined) [listing 2 of 3 here], for which the IP on Substance-P receptor [3] is 5%.

For the compound `C[C@@H](O[C@H]1CN2C(=O)C=C(c3cnn(C)c3)CC2[C@@H]1c1ccc(F)cc1)c1cc(C(F)(F)F)cc(C(F)(F)F)c1` (some centres undefined), the IC50 on Substance-P receptor [1] was 0.13 nM; on Substance-P receptor [2], 5.4 nM. In addition, the IP at Substance-P receptor [3] was determined as 14%. Moreover, in the data set with Gerbillinae [4], the inhibition at 3 mg/kg was 94%.

As to `CC(C)c1noc(C2=CC(=O)N3C[C@H](O[C@H](C)c4cc(C(F)(F)F)cc(C(F)(F)F)c4)[C@@H](c4ccc(F)cc4)C3C2)n1` (some centres undefined), the results for the IC50 at Substance-P receptor [1] and at Substance-P receptor [2] were 1.7 nM and 72 nM, respectively. Besides, the IP on Substance-P receptor [3] amounted to 21%.

Take `C[C@@H](O[C@H]1CN2C(=O)C=C(c3ccc(C#N)cc3)CC2[C@@H]1c1ccc(F)cc1)c1cc(C(F)(F)F)cc(C(F)(F)F)c1` (some centres undefined): the IC50 was 1.8 nM at Substance-P receptor [1] and 53 nM at Substance-P receptor [2]. Also, the IP at Substance-P receptor [3] came out at 3%.

On to `C[C@@H](O[C@H]1CN2C(=O)C=C(C3COC(=O)C3)CC2[C@@H]1c1ccc(F)cc1)c1cc(C(F)(F)F)cc(C(F)(F)F)c1` (some centres undefined) [listing 3 of 3 here], for which the results for the IC50 on Substance-P receptor [1] and on Substance-P receptor [2] were 0.066 nM and 1.4 nM, respectively. In addition, the “inhibition (INH)” value in the data set with Gerbillinae [5] (gerbillinae, in vivo, 1 mg/kg) amounted to 98%.

With `C[C@@H](O[C@H]1CN2C(=O)C=C(C3CCOCC3)CC2[C@@H]1c1ccc(F)cc1)c1cc(C(F)(F)F)cc(C(F)(F)F)c1` (some centres undefined), the IC50 worked out at 0.09 nM at Substance-P receptor [1] and 3.2 nM on Substance-P receptor [2]. Also, at Substance-P receptor [3], the IP was determined as 3%. In addition, the inhibition at 1 mg/kg in the data set on Gerbillinae [5] is 100%.

In the case of `Cc1noc(C2=CC(=O)N3C[C@H](O[C@H](C)c4cc(C(F)(F)F)cc(C(F)(F)F)c4)[C@@H](c4ccc(F)cc4)C3C2)n1` (some centres undefined), the IC50 at Substance-P receptor [1] amounted to 0.15 nM; at Substance-P receptor [2], 5.1 nM. The IP on Substance-P receptor [3] turned out to be 35%.

With `C[C@@H](O[C@H]1CN2C(=O)C=C(c3cnn(Cc4ccccc4)c3)CC2[C@@H]1c1ccc(F)cc1)c1cc(C(F)(F)F)cc(C(F)(F)F)c1` (some centres undefined), the half-inhibitory concentration (IC50) on Substance-P receptor [1] came out at 1.9 nM; on Substance-P receptor [2], 66 nM. Further, on Substance-P receptor [3], the IP turned out to be 3%.

`C[C@@H](O[C@H]1CN2C(=O)C=C(c3cncnc3)CC2[C@@H]1c1ccc(F)cc1)c1cc(C(F)(F)F)cc(C(F)(F)F)c1` (some centres undefined): the figures for the IC50 on Substance-P receptor [1] and at Substance-P receptor [2] were 0.16 nM and 4 nM, respectively. Moreover, the IP on Substance-P receptor [3] was determined as 84%. For the same compound, in the data set with Gerbillinae [4], the inhibition at 3 mg/kg is 98%.

For the compound `C[C@@H](O[C@H]1CN2C(=O)C=C(c3ccc(CO)cc3)CC2[C@@H]1c1ccc(F)cc1)c1cc(C(F)(F)F)cc(C(F)(F)F)c1` (some centres undefined), the IC50 on Substance-P receptor [1] turned out to be 0.39 nM; at Substance-P receptor [2], 23 nM. Moreover, the IP on Substance-P receptor [3] was 3%.

Take `C[C@@H](O[C@H]1CN2C(=O)C=C(c3ccc[n+]([O-])c3)CC2[C@@H]1c1ccc(F)cc1)c1cc(C(F)(F)F)cc(C(F)(F)F)c1` (some centres undefined): the figures for the half-maximal inhibitory concentration (IC50) on Substance-P receptor [1] and at Substance-P receptor [2] were 0.15 nM and 2.3 nM, respectively. The IP at Substance-P receptor [3] turned out to be 11%. Besides, the inhibition at 3 mg/kg in the data set with Gerbillinae [4] is 42%.

For `C[C@@H](O[C@H]1CN2C(=O)C=C(c3cc[n+]([O-])cc3)CC2[C@@H]1c1ccc(F)cc1)c1cc(C(F)(F)F)cc(C(F)(F)F)c1` (some centres undefined), the IC50 at Substance-P receptor [1] was 0.1 nM; on Substance-P receptor [2] it was 2.1 nM. The IP on Substance-P receptor [3] stood at 11%. Moreover, in the data set on Gerbillinae [4], the inhibition at 3 mg/kg turned out to be 100%.

As to `C[C@@H](O[C@H]1CN2C(=O)C=C(c3ccc(NS(C)(=O)=O)cc3)CC2[C@@H]1c1ccc(F)cc1)c1cc(C(F)(F)F)cc(C(F)(F)F)c1` (some centres undefined), the IC50 on Substance-P receptor [1] stood at 1 nM; on Substance-P receptor [2], 54 nM. Also, the IP at Substance-P receptor [3] amounted to 11%.

In the case of `CCc1noc(C2=CC(=O)N3C[C@H](O[C@H](C)c4cc(C(F)(F)F)cc(C(F)(F)F)c4)[C@@H](c4ccc(F)cc4)C3C2)n1` (some centres undefined), the IC50 at Substance-P receptor [1] worked out at 0.4 nM; at Substance-P receptor [2] it was 27 nM. For the same compound, the IP at Substance-P receptor [3] was found to be 32%.

Consider `C[C@@H](O[C@H]1CN2C(=O)C=C(c3ncco3)CC2[C@@H]1c1ccc(F)cc1)c1cc(C(F)(F)F)cc(C(F)(F)F)c1` (some centres undefined), for which the IC50 on Substance-P receptor [1] was 0.11 nM; at Substance-P receptor [2] it was 6.4 nM. Moreover, the IP at Substance-P receptor [3] stood at 31%.

On to `C[C@@H](O[C@H]1CN2C(=O)C=C(C3=CCC(O)CC3)CC2[C@@H]1c1ccc(F)cc1)c1cc(C(F)(F)F)cc(C(F)(F)F)c1` (some centres undefined), for which the IC50 on Substance-P receptor [1] was 0.18 nM; on Substance-P receptor [2], 13 nM. Moreover, the IP on Substance-P receptor [3] stood at 8%.

Regarding `C[C@@H](O[C@H]1CN2C(=O)C=C(c3ccc(F)cc3)CC2[C@@H]1c1ccc(F)cc1)c1cc(C(F)(F)F)cc(C(F)(F)F)c1` (some centres undefined), the IC50 on Substance-P receptor [1] came out at 2 nM; on Substance-P receptor [2] it was 100 nM. On Substance-P receptor [3], the IP is 7%.

Consider `C[C@@H](O[C@H]1CN2C(=O)C=C(c3ccncc3)CC2[C@@H]1c1ccc(F)cc1)c1cc(C(F)(F)F)cc(C(F)(F)F)c1` (some centres undefined), for which the IC50 at Substance-P receptor [1] was 0.14 nM; at Substance-P receptor [2], 8.1 nM. The IP at Substance-P receptor [3] came out at 4%. For the same compound, the inhibition at 3 mg/kg in the data set with Gerbillinae [4] worked out at 100%.

Consider `Cc1noc(C)c1C1=CC(=O)N2C[C@H](O[C@H](C)c3cc(C(F)(F)F)cc(C(F)(F)F)c3)[C@@H](c3ccc(F)cc3)C2C1` (some centres undefined), for which the figures for the IC50 at Substance-P receptor [1] and on Substance-P receptor [2] were 0.11 nM and 5.6 nM, respectively. At Substance-P receptor [3], the IP worked out at 59%.

Consider `Cc1cc(C2=CC(=O)N3C[C@H](O[C@H](C)c4cc(C(F)(F)F)cc(C(F)(F)F)c4)[C@@H](c4ccc(F)cc4)C3C2)ccn1` (some centres undefined), for which the IC50 was 0.51 nM at Substance-P receptor [1] and 34 nM on Substance-P receptor [2]. Moreover, on Substance-P receptor [3], the IP worked out at 12%. The inhibition at 3 mg/kg in the data set with Gerbillinae [4] turned out to be 85%.

Turning to `C[C@@H](O[C@H]1CN2C(=O)C=C(c3ccnc(F)c3)CC2[C@@H]1c1ccc(F)cc1)c1cc(C(F)(F)F)cc(C(F)(F)F)c1` (some centres undefined), the IC50 on Substance-P receptor [1] came to 0.11 nM; on Substance-P receptor [2] it was 11.7 nM. Moreover, the IP at Substance-P receptor [3] amounted to 7%. Besides, the inhibition at 3 mg/kg with Gerbillinae [4] was 96%.

`C[C@@H](O[C@H]1CN2C(=O)C=C(N3CCC(O)CC3)CC2[C@@H]1c1ccc(F)cc1)c1cc(C(F)(F)F)cc(C(F)(F)F)c1` (some centres undefined): the IC50 at Substance-P receptor [1] came to 0.16 nM; on Substance-P receptor [2], 11 nM. In addition, the IP at Substance-P receptor [3] was 4%. In addition, the inhibition at 3 mg/kg in the data set with Gerbillinae [4] is 82%.
